Test results from patent US20110044991A1, “METHODS AND COMPOSITIONS FOR TREATING LYMPHOMA AND MYELOMA” (IRM LLC, priority 2006, published 2011).

How the values were obtained:
Format in all cases: cell-based, mouse
lymphoma cells = test: Cell cycle distribution of gated viable cells; settings: after 12 hours of treatment; 20.4% before
Eμ-Myc lymphoma cells = test: Shh-induced proliferation of lymphoma cells without stromal layer, Alamar Blue assay; settings: Shh 10 μM over 48 h; 5E1 10 μg/ml, cyclopamine 5 μM
Experimental: Luminescence was measured after 0 h, 24 h and 48 h after seeding of 2×10E4 luciferased lymphoma cells on the stroma cells; and F: RT-PCR analysis of transcripts from Hh pathway members and targets in spleen lymphocytes and different lymphoma cell lines.
Cell culture experiments: Lymphoma cells were infected with a retrovirus containing a pMSCV IRES puro-luc sequence and selected for 7 days with puromycin on puromycin-resistant Cdkn2a−/− stroma. […] Both were dissolved as x 1,000 stocks in DMSO. SCF was obtained from RDI, and all other cytokines were obtained from R&D systems. 5E1 anti-ShhN monoclonal antibody was obtained from the developmental hybridoma bank and was used at a concentration of 10 μg/ml. For cytokine stimulation and Shh inhibition in supernatant lymphoma cells were seeded into 96-well plates at a density of 20,000 cells per well and mitochondrial activity of viable cells was measured with an Alamar Blue Assay as described.

Gli1, Ptch1, Bcl2 = test: Hh target expression in lymphoma cells (Western blot, quantitative RT-PCR)
Experimental: Western immunoblot: Whole-cell lysates were sonicated in 2% SDS/50 mM TrisHCl, pH8. Western blot using rabbit or goat polyclonal antibodies for Shh-N, c-Myc, Smo, Gli1 were performed as described. Shh-N, c-Myc and Smo antibodies were obtained from Santa Cruz Biotechnology, Gli1 (ab7523) antibody was obtained from Abcam Inc. (Cambridge, Mass.).
RT-PCR: Total cellular RNA was treated with DNase, reverse transcribed, amplified for 33 cycles at an annealing temperature of 55° C. Primers used were obtained from Integrated DNA Technologies (Coralville, Iowa).
To further substantiate a role for Hh/SMO signalling in Eμ-Myc and CDKN2a^−/− positive lymphoma we determined the expression of Hh pathway members in the lymphoma cells itself. Transcripts of all essential Hh pathway members (Smo, Ptc1, Ptc2, Gli1, and Gli2) were expressed in B-cell lymphomas, plasmoblastomas and plasmacytomas (FIG. 2E). Gli1 and Ptch represent direct target genes of the Hh pathway itself and are regulated at the transcriptional level by Hh signalling. […] Ptch1 transcript levels were decreased 10-fold within 18 h of pathway inhibition (FIG. 2G). Other target genes of the Hh pathway like Hip and Cyclin D1 could also be detected in the majority of lymphoma cells. […] All 3 Gli proteins have evolved specialized functions with distinct temporal and tissue-specific expression patterns. Unlike Gli1, which represents a direct transcriptional Hh-target gene, Gli2 and also Gli3 are considered latent transcriptional regulators activated by Hh signalling through modification of their N-terminal repressor domain.

SMILES: CC1=C2C[C@H]3[C@@H](CC=C4C[C@@H](O)CC[C@@]43C)[C@@H]2CC[C@]12O[C@@H]1C[C@H](C)CN[C@H]1[C@H]2C [cyclopamine]
- G2/M phase of remaining viable cells (lymphoma cells): 13.3%
- inhibition of Shh-induced proliferation (Eμ-Myc lymphoma cells): inhibited
- Bcl2 in Myc-lymphomas (Gli1, Ptch1, Bcl2; after cyclopamine treatment, Western blot): downregulated
- decrease of Ptch1 transcript levels (Gli1, Ptch1, Bcl2; within 18 h of pathway inhibition, 5 μM): 10 fold
- Gli1 protein in lymphoma cells (Gli1, Ptch1, Bcl2; within 24 hours, compared to actin control): reduction of detectable Gli1 protein
